Source: patent publication US5932545A, “Antiangiogenic drug to treat cancer, arthritis and retinopathy” (Abbott Laboratories, priority 1998, dated 1999)
Values belong to the compound of their own block, whether it stands above or below them. Square brackets hold non-standard residues; d marks the D form. Ends that are not written are not given here. Peptide text beside a SMILES is read from it.

How the values were obtained:
[1] = test system: cultured endothelial cells; conditions: background, Tolsma et al. 1993; cited from earlier work
[2] = test system: rat cornea neovascularization; conditions: background, Tolsma et al. 1993; cited from earlier work
[3] = test system: bovine capillary (adrenal) endothelial cells (BCE); assay: endothelial cell migration assay (modified Boyden chamber); assay type: cell-based; conditions: 4 hours at 37° C., read-out: IC50, effect on endothelial cell migration
Description: The effect of the peptides of the invention on endothelial cell migration was determined in vitro using the endothelial cell migration assay. This assay was performed essentially as described by Polverini, P. J. et al., Methods Enzymol, 198: 440-450 (1991). Briefly, bovine capillary (adrenal) endothelial cells (BCE, supplied by Judah Folkman, Harvard University Medical School) were starved overnight in DMEM containing 0.1% bovine serum albumin (BSA). Cells were then harvested with trypsin and resuspended in DMEM with 0.1% BSA at a concentration of 1.5×10^6cells/mL. Cells were added to the bottom of a 48-well modified Boyden chamber (Nucleopore Corporation, Cabin John, Md.). The chamber was assembled and inverted, and cells were allowed to attach for 2 hours at 37° C. to polycarbonate chemotaxis membranes (5 μm pore size) that had been soaked in 0.1 % gelatin overnight and dried. The chamber was then reinverted and test compounds were added to the wells of the upper chamber (to a total volume of 50 μL); the apparatus was then incubated for 4 hours at 37° C. Membranes were recovered, fixed and stained (DiffQuick, Fisher Scientific, Pittsburgh, Pa.) and the number of cells that had migrated to the upper chamber per 10 high power fields were counted. Background migration to DMEM+0.1% BSA was subtracted and the data reported as the number of cells migrated per 10 high power fields (400×) or when results from multiple experiments were combined, as the percent of maximal migration compared to a simultaneous positive control.

[4] = test system: rat corneal neovascularization; assay: rat corneal neovascularization assay (hydron pellets, peptide alone or with bFGF); assay type: in vivo; conditions: 7 days
Description: Inhibition of angiogenesis in vivo was measured using a rat corneal neovascularization assay. Accordingly, 6% hydron pellets containing peptide alone or in combination with 0.15 μM bFGF were implanted in rat corneas 1-1.5 mm from the limbus. at 7 days, the rats were sacrificed, perfused with colloidal carbon to visualize vessels and the corneas were extracted. Vigorous vessel ingrowth was scored as a positive angiogenic response. Induction control indicates response to 0.15 μM bFGF alone.

Compound: SPWSSASVTAGDGVITRIR [MalII, 19-mer synthetic peptide mimicking properdin-like repeat region 1 of TSP1]
ED50, inhibition of the migration of cultured endothelial cells [1]: about 1 μM
neovascularization in vivo in the rat cornea [2]: blocked neovascularization in vivo in the rat cornea

IC50 [3]: 10 nM
Compound: CC[C@@H](C)[C@@H](NC(=O)[C@@H](NC(=O)CNC(=O)[C@H](CC(=O)O)NC(=O)CNC(=O)[C@H](C)NC(=O)[C@@H](NC(=O)[C@@H](NC(=O)[C@H](CO)NC(=O)[C@H](C)NC(=O)[C@H](CO)NC(=O)[C@H](CO)NC(=O)[C@H](Cc1c[nH]c2ccccc12)NC(=O)[C@@H]1CCCN1C(=O)[C@@H](N)CO)C(C)C)[C@@H](C)O)C(C)C)C(=O)N[C@H](C(=O)N[C@@H](CCCNC(=N)N)C(=O)N[C@H](C(=O)N[C@@H](CCCNC(=N)N)C(=O)O)[C@@H](C)CC)[C@@H](C)O [Ser-Pro-Trp-Ser-Ser-Ala-Ser-Val-Thr-Ala-Gly-Asp-Gly-Val-D-Ile-Thr-Arg-Ile-Arg] (H-SPWSSASVTAGDGV[dI]TRIR-OH)

IC50 [3]: 7 nM
Compound: CC[C@@H](C)[C@@H](NC(=O)[C@@H](NC(=O)CNC(C)=O)C(C)C)C(=O)N[C@H](C(=O)N[C@@H](CCCNC(=N)N)C(=O)N[C@H](C(=O)N[C@@H](CCCNC(=N)N)C(N)=O)[C@@H](C)CC)[C@@H](C)O [Ac-Gly-Val-D-Ile-Thr-Arg-Ile-Arg-NH2] (Ac-GV[dI]TRIR-NH2)
Positive Corneas/Total Implanted, Tested + bFGF ([4]; 0.1 μM peptide + 0.15 μM bFGF): 1/3
Positive Corneas/Total Implanted, Tested Alone ([4]; 0.1 μM peptide alone): 0/3
Positive Corneas/Total Implanted, Tested + bFGF ([4]; 1 μM peptide + 0.15 μM bFGF): 0/2
Positive Corneas/Total Implanted, Tested Alone ([4]; 1 μM peptide alone): 0/1
Positive Corneas/Total Implanted, Tested + bFGF ([4]; 20 μM peptide + 0.15 μM bFGF): 0/2
Positive Corneas/Total Implanted, Tested Alone ([4]; 20 μM peptide alone): 0/4

IC50 [3]: 50 nM
Compound: CCNC(=O)[C@H](CCCNC(=N)N)NC(=O)[C@@H](NC(=O)[C@H](CCCNC(=N)N)NC(=O)[C@@H](NC(=O)[C@H](NC(=O)[C@@H](NC(=O)CNC(=O)[C@H](Cc1ccc(O)cc1)NC(C)=O)C(C)C)[C@H](C)CC)[C@@H](C)O)[C@@H](C)CC [Ac-Tyr-Gly-Val-D-Ile-Thr-Arg-Ile-Arg-NHCH2 CH3] (Ac-YGV[dI]TRIR-NHEt)

IC50 [3]: 0.9 nM
Compound: CC[C@@H](C)[C@@H](NC(=O)[C@@H](NC(=O)CNC(=O)[C@H](CC(=O)O)NC(=O)CNC(=O)[C@H](C)NC(=O)[C@@H](NC(=O)[C@@H](NC(=O)[C@H](CO)NC(=O)[C@H](C)NC(=O)[C@@H](CO)NC(=O)[C@H](CO)NC(=O)[C@H](Cc1c[nH]c2ccccc12)NC(=O)[C@@H]1CCCN1C(=O)[C@@H](N)CO)C(C)C)[C@@H](C)O)C(C)C)C(=O)N[C@H](C(=O)N[C@@H](CCCNC(=N)N)C(=O)N[C@H](C(=O)N[C@@H](CCCNC(=N)N)C(=O)O)[C@@H](C)CC)[C@@H](C)O [Ser-Pro-Trp-Ser-D-Ser-Ala-Ser-Val-Thr-Ala-Gly-Asp-Gly-Val-D-Ile-Thr-Arg-Ile-Arg] (H-SPWS[dS]ASVTAGDGV[dI]TRIR-OH)

Compound: CC[C@@H](C)[C@@H](NC(=O)[C@@H](NC(=O)CNC(=O)[C@H](CC(=O)O)NC(=O)CNC(=O)[C@H](C)NC(=O)[C@@H](NC(=O)[C@@H](NC(=O)[C@H](CO)NC(=O)[C@H](C)NC(=O)[C@H](CO)NC(=O)[C@@H](CO)NC(=O)[C@H](Cc1c[nH]c2ccccc12)NC(=O)[C@@H]1CCCN1C(=O)[C@@H](N)CO)C(C)C)[C@@H](C)O)C(C)C)C(=O)N[C@H](C(=O)N[C@@H](CCCNC(=N)N)C(=O)N[C@H](C(=O)N[C@@H](CCCNC(=N)N)C(=O)O)[C@@H](C)CC)[C@@H](C)O [Ser-Pro-Trp-D-Ser-Ser-Ala-Ser-Val-Thr-Ala-Gly-Asp-Gly-Val-D-Ile-Thr-Arg-Ile-Arg] (H-SPW[dS]SASVTAGDGV[dI]TRIR-OH)
Positive Corneas/Total Implanted, Tested + bFGF ([4]; peptide + 0.15 μM bFGF, peptide concentration not given): 0/3
Positive Corneas/Total Implanted, Tested Alone ([4]; peptide alone in hydron pellet, concentration not given): 0/3

IC50 [3]: 0.9 nM
Compound: CC[C@H](C)[C@H](NC(=O)[C@H](CCCNC(=N)N)NC(=O)[C@@H](NC(=O)[C@@H](NC(=O)[C@@H](NC(=O)CNC(=O)[C@H](CC(=O)O)NC(=O)CNC(=O)[C@H](C)NC(=O)[C@@H](NC(=O)[C@@H](NC(=O)[C@H](CO)NC(=O)[C@H](C)NC(=O)[C@@H](CO)NC(=O)[C@H](CO)NC(=O)[C@H](Cc1c[nH]c2ccccc12)NC(=O)[C@@H]1CCCN1C(=O)[C@@H](N)CO)C(C)C)[C@@H](C)O)C(C)C)[C@@H](C)CC)[C@@H](C)O)C(=O)N[C@@H](CCCNC(=N)N)C(=O)O [Ser-Pro-Trp-Ser-D-Ser-Ala-Ser-Val-Thr-Ala-Gly-Asp-Gly-Val-Ile-Thr-Arg-Ile-Arg] (H-SPWS[dS]ASVTAGDGVITRIR-OH)

IC50 [3]: 0.67 nM
Compound: CCNC(=O)[C@H](CCCNC(=N)N)NC(=O)[C@@H](NC(=O)[C@H](CCCNC(=N)N)NC(=O)[C@@H](NC(=O)[C@H](NC(=O)[C@@H](NC(=O)CNC(C)=O)C(C)C)[C@H](C)CC)[C@@H](C)O)[C@@H](C)CC [Ac-Gly-Val-D-Ile-Thr-Arg-Ile-Arg-NHEt, Ac-Gly-Val-D-Ile-Thr-Arg-Ile-Arg-NHCH2 CH3] (Ac-GV[dI]TRIR-NHEt)
